Experimental data published in BindingDB's records for doi:10.1016/s0960-894x(03)00474-8 (Merck Research Laboratories, 2003).

Biological target: T1, Dimer of Gag-Pol polyprotein [489-587,Q496K] (Human immunodeficiency virus 1, UniProt P12497, Q496K)
T1 construct: 489-587
Test: Protease Inhibition Assay
Settings: pH 5.5; 30 °C
Experimental: Assay of HIV protease inhibition was performed by peptide cleavage using the substrate Val-Ser-Gln-Asn-beta-naphthylalanine*Pro-Ile-Val. Products of the cleavage reaction were quantified by HPLC detection, and data were fit to nonlinear least squares equations for determination of steady-state Michaelis-Menten kinetics.

Row | SMILES | IC50 [nM]
1 | CC(C)(c1ncc(-c2cncc(Cl)c2)o1)N1CCN(C[C@@H](O)C[C@@H](Cc2ccccc2)C(=O)N[C@H]2c3ccccc3OC[C@H]2O)[C@H](C(=O)NCC(F)(F)F)C1 [(2S)-1-[(2S,4R)-4-benzyl-2-hydroxy-4-{[(3S,4S)-3-hydroxy-3,4-dihydro-2H-1-benzopyran-4-yl]carbamoyl}butyl]-4-{2-[5-(5-chloropyridin-3-yl)-1,3-oxazol-2-yl]propan-2-yl}-N-(2,2,2-trifluoroethyl)piperazine-2-carboxamide] | 0.02
2 | CC(C)(c1ccc(-c2ccncc2)o1)N1CCN(C[C@@H](O)C[C@@H](Cc2ccccc2)C(=O)N[C@H]2c3ccccc3OC[C@H]2O)[C@H](C(=O)NCC(F)(F)F)C1 [(2S)-1-[(2S,4R)-4-benzyl-2-hydroxy-4-{[(3S,4S)-3-hydroxy-3,4-dihydro-2H-1-benzopyran-4-yl]carbamoyl}butyl]-4-{2-[5-(pyridin-4-yl)furan-2-yl]propan-2-yl}-N-(2,2,2-trifluoroethyl)piperazine-2-carboxamide] | 0.05
